Laboratory results: US7157471B2, “Haloalkyl- and piperidine-substituted benzimidazole-derivatives” (Boehringer Ingelheim International GmbH, priority 2003, dated 2007)
Counter-ions that a name gives are not always drawn.

How the values were obtained:
[1] = target: T1, human chemokine receptor CCR-3 (Homo sapiens, UniProt P51677); test: CCR-3 receptor binding assay (SPA) with 125Jodine-eotaxin-1; conditions: membranes of hCCR-3 transfected K562 cells, radioligand 125J rhEotaxin, 2 hours incubation; read-out: Binding constants Ki (Eotaxin at CCR-3-Rezeptor)
T1 construct: expressed in transfected cells; host or cells: K562 cell line (membranes)
T1 sequence (P51677 1-355): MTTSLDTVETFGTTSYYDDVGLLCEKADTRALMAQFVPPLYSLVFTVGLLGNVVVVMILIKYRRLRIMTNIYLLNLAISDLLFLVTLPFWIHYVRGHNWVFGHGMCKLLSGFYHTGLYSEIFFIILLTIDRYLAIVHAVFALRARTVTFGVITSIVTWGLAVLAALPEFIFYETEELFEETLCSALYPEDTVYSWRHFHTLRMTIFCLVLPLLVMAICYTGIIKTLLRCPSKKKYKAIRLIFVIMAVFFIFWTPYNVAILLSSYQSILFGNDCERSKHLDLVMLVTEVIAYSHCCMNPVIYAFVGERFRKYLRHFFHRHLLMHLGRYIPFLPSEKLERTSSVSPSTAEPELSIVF
Description: The CCR-3 receptor binding test is based on a K562 cell line (leukemia myelogenic blast cells) transfected with the human chemokine receptor CCR-3 (hCCR-3-Cl). The cell membranes were prepared by disrupting the hCCR-3 transfected K562 cells by nitrogen […] and centrifugation at 40000 g, 4° C. for 1 h. The membranes were re-suspended in the SPA incubation buffer without bovine serum albumin for storage in aliquots at −80° C.
The CCR-3 receptor binding assay with the radioligand ^125Jodine-eotaxin-1 was performed in a Scintillation Proximity Assay (SPA) design. Cell membranes of hCCR-3 Cl cells were diluted in suitable concentrations (0.5–5 ug protein/well) in 96 well microtiter plates (1450–401, Wallac).
The test incubation mixture comprising 60 μl of the membrane suspension, 80 μl of the Wheat Germ Agglutinin coated PVT beads (organic scintillator, Amersham Pharmacia biotech) in a concentration of 0,4 mg and 40 μl of radiolabelled ^125J rhEotaxin (Amersham, IM290) were incubated with 20 μl of the test compound (dissolved in DMSO dilutions) for 2 hours. […] Bound radioactivity was determined by scintillation counter (Micro Beta “Trilux”, Wallac).
Determination of affinity of test compounds (dissociation constant Ki) was calculated by iterative fitting of experimental data using the law of mass action based program “easy sys” (Schittkowski, Num Math 68, 129–142 (1994)).

| melting point | Ki [1] | SMILES |
| --- | --- | --- |
| 208 to 209 °C | – | Fc1ccc(SCCCN2CCC(n3c(C(F)(F)C(F)(F)F)nc4cc(F)ccc43)CC2)cc1 (as salt: hydrochloride) [Example 6, 2-Pentafluoroethyl-5-fluoro-1-{1-[3-(4-fluoro-phenylsulfanyl)-propyl]-piperidin-4-yl}-1H-benzoimidazole] |
| 158 to 160 °C | – | Fc1ccc(SCCCN2CCC(n3c(CC(F)(F)F)nc4cc(F)ccc43)CC2)cc1 (as salt: hydrochloride) [Example 10, 2-(2,2,2-Trifluoroethyl)-5-fluoro-1-{1-[3-(4-fluoro-phenylsulfanyl)-propyl]-piperidin-4-yl}-1H-benzoimidazole] |
| – | 110 nM | Fc1ccc(SCCCN2CCC(n3c(C(F)(F)C(F)(F)F)nc4cc(F)ccc43)CC2)cc1 [Example 6, 2-Pentafluoroethyl-5-fluoro-1-{1-[3-(4-fluoro-phenylsulfanyl)-propyl]-piperidin-4-yl}-1H-benzoimidazole] |
| – | 19 nM | Fc1ccc(SCCCN2CCC(n3c(CC(F)(F)F)nc4cc(F)ccc43)CC2)cc1 [Example 10, 2-(2,2,2-Trifluoroethyl)-5-fluoro-1-{1-[3-(4-fluoro-phenylsulfanyl)-propyl]-piperidin-4-yl}-1H-benzoimidazole] |
